Laboratory results reported in patent publication US20180311364A1, “Protease Triggered Release Of Molecules From Hydrogels” (The Trustees of the University of Pennsylvania, priority 2010, published 2018).

Assay: Triggered release of ilomastat from HA-aldehyde / HA-peptide-hydrazide hydrogel
Format: physicochemical
Method: Ilomastat was ground into a fine powder of uniform microparticles. These microparticles were suspended in the dissolved HA-aldehyde and HA-peptide-hydrazide solutions at 10 μg per 100 μL of polymer solution. At this concentration ilomastat remains a solid particle within the polymer solution. HA-aldehyde and HA-peptide-hydrazide polymers were mixed 1:1 aldehdye:hydrazide to induce crosslinking into a solid gel. The gels were incubated in phosphate buffered saline at 37° C. After 14 days less than 10% of the ilomastat was released from the gels due to hydrophobic interactions of the ilomastat in the microparticles. The gels were then exposed to collagenase 200 U/mL and the gels degraded.

ilomastat released from the gels (gels incubated in phosphate buffered saline at 37° C., after 14 days, ilomastat microparticles 10 μg per 100 μL polymer solution): less than 10%
Structure (SMILES): CNC(=O)[C@H](Cc1c[nH]c2ccccc12)NC(=O)[C@@H](CC(=O)NO)CC(C)C [ilomastat, Ilomastat]
ilomastat release after gel degradation (HPLC) (gels exposed to collagenase 200 U/mL after 14 days in PBS, gels degraded): solubilized in the larger volume of the buffer
